Target: aβ 1-42 peptide
Assay: not given
Conditions: Fluorescent; ref [43]; cited from earlier work
From the text: Table 2 Dissociation constants Kd of the interaction between aβ 1-42 peptide and various binding partners. | column: Kd (nM)

Row | Molecule | Kd [nM]
1 | CN(C)c1ccc(/C=C/C2=CC(/C=C/c3ccc(N(C)C)cc3)=[O+][B-](F)(F)O2)cc1 [CRANAD-2, (T-4)-((1E,6E)-1,7-bis(4-(dimethylamino)phenyl)-1,6-heptadiene-3,5-dionato-kO^3,kO^5)difluoro-boron] | 38.7
2 | CN(C)c1ccc(/C=C/C=C/C=C(C#N)C#N)cc1 [DANIR-2c] | 26.9
3 | N#CC(C#N)=Cc1ccc(-c2ccc(-c3ccc(O)cc3)s2)s1 [NIAD-4, {(50-(p-Hydroxyphenyl)-2,20-bithienyl-5-yl)-methylidene}-propanedinitrile] | 10

System: anti-aβ/SAM/ICE biosensor (anti-aβ antibody MOAB-2)
Assay: Selectivity of biosensor: change in capacitance ΔC with different analytes
Type: binding
Conditions: 1 Hz, in HS; TNF-α 0.5 ng mL^−1, insulin 10^3 ng mL^−1, CRP 10^5 ng mL^−1; n = 3
Description: Electrical impedance spectroscopy (EIS) (EC-Lab, Sp-200, Bio-Logic Science Instruments, Seyssinet-Pariset, France) was used for the recording of impedance and capacitance of the biosensor in PBS (pH 7.4). The EIS output signal is measured by applying an input voltage of 10 mV in a frequency range from 100 mHz–100 Hz, to the working and reference electrode. To explore the clinical application, the capacitive anti-aβ/SAM/ICE biosensor was employed for the direct detection of aβ 1-42 peptide in HS. Firstly, the pure HS was diluted in 1× PBS buffer at the ratio (1:1000), to avoid matrix effects in the measurement. Next, 1 μg mL^−1 of aβ 1-42 in pure HS was made, and then differential concentrations of aβ from 10^−3 to 10^3 ng mL^−1 were diluted using HS (1:1000). Various concentrations of aβ (10^−3–10^3 ng mL^−1) were incubated in the HS (1:1000) with the biosensor for 20 min, and the capacitance was measured. To verify the selectivity of the anti-aβ/SAM/ICE biosensor, the effects of tumor necrosis factor-alpha (TNF-α, 0.5 ng mL^−1), insulin (10^3 ng mL^−1), and C-reactive protein (CRP, 10^5 ng mL^−1) in HS were characterized using the change in capacitance ΔC value at 1 Hz frequency (Figure 7a). […] Moreover, the fabricated aβ/SAM/ICE biosensors were kept in the refrigerator at 4 °C for storage. Then, the capacitance of the biosensor at 1 Hz was recorded in PBS at 24 °C of room temperature, on the 1st, 2nd, 3rd, 7th, and 14th day after taking it out to check the stability of the biosensor, as shown in Figure 7b.

Row | Molecule | interference with aβ detection | ΔC response (change in capacitance)
4 | TNF-α | no significant interference | did not change much compared to the ΔC response for aβ
5 | insulin: insulin, interferent in selectivity test | no significant interference | did not change much compared to the ΔC response for aβ
6 | CRP: C-reactive protein, interferent in selectivity test (protein, UniProt P02741 19-224, looked up) C-reactive protein: QTDMSRKAFVFPKESDTSYVSLKAPLTKPLKAFTVCLHFYTELSSTRGYSIFSYATKRQDNEILIFWSKDIGYSFTVGGSEILFEVPEVTVAPVHICTSWESASGIVEFWVDGKPRVRKSLKKGYTVGAEASIILGQEQDSFGGNFEGSQSLVGDIGNVNMWDFVLSPDEINTIYLGGPFSPNVLNWRALKYEVQGEVFTKPQLWP | no significant interference | did not change much compared to the ΔC response for aβ
